Here are results for 3 compounds from US20190167593A1, “C[…] PHARMACEUTICALLY ACCEPTABLE SALT THEREOF, AND APPLICATION OF SAME” (priority 2016, published 2019).

Converted amounts (≈) assume the structure as drawn. Read-outs that look alike come from different tables or passages of the source.

Data set [1] can be described thus: physchem. The format is physicochemical. The conditions noted are these: molar ratio compound:acid as listed per salt.
The nature of data set [2]: physchem. The data set is classed as physicochemical. The following applies: Non-lactic acid.
Data set [3] deals with A/Puerto Rico/8/34 (H1N1) (PR8). The data set can be described thus: organism not typed. The following applies: MDCK cells, crystal violet staining, 3 days, read-out: IC50 against influenza virus replication (plaque formation), PR8. The format is cell-based.
The next data set deals with influenza virus PR8. The conditions noted are these: mouse, in vivo.

On to `CCCCS(=O)(=O)N[C@@H]1CCCN([C@@H]2C=C(C(=O)O)C[C@H](NC(=N)N)[C@H]2NC(C)=O)C1` [(3R,4R,5S)-4-acetamido-5-guanidino-3-((3R)-3-n-butylsulfonamidopiperidin)-1-cyclohexene-1-carboxylic acid], for which the “PH VALUE OF THE SOLUTION” value in the data set “physchem [1]” is reported as 7.8. Besides, the solubility turned out to be 2.5 mg/mL in “physchem [1]” (water, unit printed in b135 only) and 2.5 mg/mL (≈ 5.45 mM) in the data set “physchem [2]” (pH 7.8). Further, the “pH VALUE” in “physchem [2]” turned out to be 7.8. Besides, the IC50 was found to be 0.253 µM in data set [3] (listed as COMPOUND TO BE TESTED OF FORMULA I) and 0.25 µM in data set [3] (MDCK, 72 h). Further, in the data set on influenza virus PR8, the body weight entry is recorded as “slightly decreased”.

Turning to `CCOC(=O)C1=C[C@@H](OC(CC)CC)[C@H](NC(C)=O)[C@@H](N)C1.O=P(O)(O)O` [Oseltamivir phosphate, ethyl (3R, 4R, 5S)-4-acetamido-5-amino-3-(1-ethylpropoxy)-1-cyclohexene-1-carboxylate phosphate], the IC50 in data set [3] (phosphate) was 0.133 µM; in data set [3] (MDCK, 72 h) it was 0.13 µM. Further, the disease symptoms entry in the data set with influenza virus PR8 is “obvious disease symptoms”.

Consider Peramivir, for which the IC50 in data set [3] turned out to be 0.0176 µM.

One may read the solubility as how much of the substance goes into solution per volume. A word on the IC50: it is the concentration at which inhibition is half-maximal.
